Test results taken from patent US9914736B2, “TrKA kinase inhibitors, compositions and methods thereof” (Merck Sharp & Dohme Corp., priority 2014, dated 2018).

Target: human TrkA receptor (Homo sapiens (Human), UniProt P04629)
Assay: DiscoverX PathHunter TrkA functional assay
Format: cell-based
Conditions: U2OS cells expressing human TrkA-ProLink, Shc1-EA and p75NTR; compound 1 h, then NGF at ~80% of maximal response for 3 h; luminescence

Sequence of human TrkA receptor (P04629 33-796): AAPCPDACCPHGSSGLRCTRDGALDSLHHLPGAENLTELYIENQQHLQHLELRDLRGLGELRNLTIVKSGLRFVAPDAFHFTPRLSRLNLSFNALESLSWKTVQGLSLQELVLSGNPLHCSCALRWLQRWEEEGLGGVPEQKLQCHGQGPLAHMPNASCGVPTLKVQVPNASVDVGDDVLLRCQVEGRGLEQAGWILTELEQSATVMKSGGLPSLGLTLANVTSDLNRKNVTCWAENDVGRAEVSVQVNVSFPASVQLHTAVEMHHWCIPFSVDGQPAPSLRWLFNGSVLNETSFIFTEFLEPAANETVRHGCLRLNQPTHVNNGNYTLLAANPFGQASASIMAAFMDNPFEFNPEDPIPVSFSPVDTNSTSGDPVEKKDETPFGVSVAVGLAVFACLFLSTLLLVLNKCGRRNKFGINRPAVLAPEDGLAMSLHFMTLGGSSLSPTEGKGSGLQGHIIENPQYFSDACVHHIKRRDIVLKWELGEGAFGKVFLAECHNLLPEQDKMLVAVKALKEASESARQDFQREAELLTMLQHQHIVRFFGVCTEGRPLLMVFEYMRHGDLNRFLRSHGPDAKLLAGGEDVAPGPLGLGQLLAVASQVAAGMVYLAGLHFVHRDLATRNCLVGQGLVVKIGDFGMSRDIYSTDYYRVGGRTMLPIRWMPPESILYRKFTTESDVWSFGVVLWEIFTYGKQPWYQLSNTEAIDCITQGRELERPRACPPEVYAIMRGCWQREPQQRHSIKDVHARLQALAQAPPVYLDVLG

| SMILES | IC50 |
| --- | --- |
| Cn1ccc(-c2cc(C(=O)Nc3c4c(nn3-c3ccc(F)cc3)CCC4)ccc2C(F)(F)F)n1 [Compound 82, N-[2-(4-fluorophenyl)-2,4,5,6-tetrahydrocyclopenta[c]pyrazol-3-yl]-3-(1-methyl-1H-pyrazol-3-yl)-4-(trifluoromethyl)benzamide] | 33 nM |
| Cc1nc(NC(=O)c2ccc(C(F)(F)F)c(-c3ccn(C)n3)c2)n(-c2ccccc2)n1 [Compound 15, N-(3-methyl-1-phenyl-1H-1,2,4-triazol-5-yl)-3-(1-methyl-1H-pyrazol-3-yl)-4-(trifluoromethyl)benzamide] | 150 nM |
| Cn1ccc(-c2cc(C(=O)Nc3cc(-c4ccc(=O)[nH]n4)nn3-c3ccccc3)ccc2C(F)(F)F)n1 [Compound 11, 3-(1-methyl-1H-pyrazol-3-yl)-N-[3-(6-oxo-1,6-dihydropyridazin-3-yl)-1-phenyl-1H-pyrazol-5-yl]-4-(trifluoromethyl)benzamide] | 5.5 nM |
| CCn1ccc(-c2cc(C(=O)Nc3cc(C)nn3-c3ccc(F)cc3)ccc2C(F)(F)F)n1 [Compound 75, 3-(1-ethyl-1H-pyrazol-3-yl)-N-[1-(4-fluorophenyl)-3-methyl-1H-pyrazol-5-yl]-4-(trifluoromethyl)benzamide] | 89 nM |
| Cn1ccc(-c2cc(C(=O)Nc3cc(-c4ccc(=O)[nH]n4)nn3-c3ccccc3)c(Cl)cc2C(F)(F)F)n1 [Compound 55, 2-chloro-5-(1-methyl-1H-pyrazol-3-yl)-N-[3-(6-oxo-1,6-dihydropyridazin-3-yl)-1-phenyl-1H-pyrazol-5-yl]-4-(trifluoromethyl)benzamide] | 1.6 nM |
| O=C(Nc1cc(Cc2n[nH]c(=O)o2)nn1-c1ccc(F)cc1)c1cc(-c2ncccn2)c(C(F)(F)F)cc1F [Compound 113, 2-fluoro-N-(1-(4-fluorophenyl)-3-((5-oxo-4,5-dihydro-1,3,4-oxadiazol-2-yl)methyl)-1H-pyrazol-5-yl)-5-(pyrimidin-2-yl)-4-(trifluoromethyl)benzamide] | 15 nM |
| Cc1cc(NC(=O)c2cc(-c3cc[nH]n3)ccc2Cl)n(-c2cc(C)[nH]n2)n1 [Compound 54, 2-chloro-N-(3,5′-dimethyl-1′H-1,3′-bipyrazol-5-yl)-5-(1H-pyrazol-3-yl)benzamide] | 490 nM |
| O=C(Nc1cc(-c2ccncc2)nn1-c1ccc(F)cc1)c1ccc(C(F)(F)F)c(-c2cc[nH]c(=O)c2)c1 [Compound 47, N-[1-(4-fluorophenyl)-3-pyridin-4-yl-1H-pyrazol-5-yl]-3-(2-oxo-1,2-dihydropyridin-4-yl)-4-(trifluoromethyl)benzamide] | 1240 nM |
| NCc1cccc(-c2cc(NC(=O)c3cc(-c4ncccn4)c(C(F)(F)F)cc3F)n(-c3ccc(F)cc3)n2)c1 [Compound 103, N-(3-(3-(aminomethyl)phenyl)-1-(4-fluorophenyl)-1H-pyrazol-5-yl)-2-fluoro-5-(pyrimidin-2-yl)-4-(trifluoromethyl)benzamide] | 2.4 nM |
| O=C(Nc1cc(-c2ccncc2)nn1-c1ccccc1)c1ccc(C(F)(F)F)c(-n2cccn2)c1 [Compound 24, N-(1-phenyl-3-pyridin-4-yl-1H-pyrazol-5-yl)-3-(1H-pyrazol-1-yl)-4-(trifluoromethyl)benzamide] | 21 nM |
| Cn1ccc(-c2cc(C(=O)Nc3[nH]ncc3-c3ccccc3)c(Cl)cc2C(F)(F)F)n1 [Compound 45, 2-chloro-5-(1-methyl-1H-pyrazol-3-yl)-N-(4-phenyl-1H-pyrazol-5-yl)-4-(trifluoromethyl)benzamide] | 7 nM |
| O=C(Nc1cc(C(=O)N2CCC2)nn1-c1ccc(F)cc1)c1cc(-c2ncccn2)c(C(F)(F)F)cc1F [Compound 88, N-(3-(azetidine-1-carbonyl)-1-(4-fluorophenyl)-1H-pyrazol-5-yl)-2-fluoro-5-(pyrimidin-2-yl)-4-(trifluoromethyl)benzamide] | 14 nM |
| Cn1ccc(-c2cc(C(=O)Nc3cc(Cc4nnnn4C)nn3-c3ccc(F)cc3)c(F)cc2C(F)(F)F)n1 [Compound 102, 2-fluoro-N-(1-(4-fluorophenyl)-3-((1-methyl-1H-tetrazol-5-yl)methyl)-1H-pyrazol-5-yl)-5-(1-methyl-1H-pyrazol-3-yl)-4-(trifluoromethyl)benzamide] | 0.4 nM |
| Cc1cc(-n2nc(CN3CCCC3)cc2NC(=O)c2ccc(C(F)(F)F)c(-c3ccn(C)n3)c2)[nH]n1 [Compound 69, 3-(1-methyl-1H-pyrazol-3-yl)-N-[5′-methyl-3-(pyrrolidin-1-ylmethyl)-2′H-1,3′-bipyrazol-5-yl]-4-(trifluoromethyl)benzamide] | 240 nM |
| Cc1cccc(-c2cc(C(=O)Nc3cc(-c4ccncc4)nn3-c3ccc(F)cc3)ccc2C(F)(F)F)n1 [Compound 30, N-[1-(4-fluorophenyl)-3-pyridin-4-yl-1H-pyrazol-5-yl]-3-(6-methylpyridin-2-yl)-4-(trifluoromethyl)benzamide] | 5.5 nM |
| Cn1ccc(-c2cc(C(=O)Nc3cc(Cc4nnn(C)n4)nn3-c3ccccc3)c(Cl)cc2C(F)(F)F)n1 [Compound 58, 2-chloro-5-(1-methyl-1H-pyrazol-3-yl)-N-{3-[(2-methyl-2H-tetrazol-5-yl)methyl]-1-phenyl-1H-pyrazol-5-yl}-4-(trifluoromethyl)benzamide] | 3.4 nM |

| SMILES | IC50 |
| --- | --- |
| Cn1ccc(-c2cc(C(=O)Nc3cn(C)nc3-c3ccccc3)c(F)cc2C(F)(F)F)n1 [Compound 65, 2-fluoro-N-(1-methyl-3-phenyl-1H-pyrazol-4-yl)-5-(1-methyl-1H-pyrazol-3-yl)-4-(trifluoromethyl)benzamide] | 4.5 nM |
| Cn1ccc(-c2cc(C(=O)Nc3cc(Cn4ncnn4)nn3-c3ccccc3)ccc2C(F)(F)F)n1 [Compound 67, 3-(1-methyl-1H-pyrazol-3-yl)-N-[1-phenyl-3-(2H-tetrazol-2-ylmethyl)-1H-pyrazol-5-yl]-4-(trifluoromethyl)benzamide] | 3.7 nM |
| Cc1csc(-c2cc(C(=O)Nc3cc(-c4ccccn4)nn3-c3cc(C)[nH]n3)ccc2C(F)(F)F)n1 [Compound 6, N-(5′-methyl-3-pyridin-2-yl-1′H-1,3′-bipyrazol-5-yl)-3-(4-methyl-1,3-thiazol-2-yl)-4-(trifluoromethyl)benzamide] | 1.7 nM |
| Cn1ccc(-c2cc(C(=O)Nc3c(-c4ccccc4)nc4n3CCC4)ccc2C(F)(F)F)n1 [Compound 79, 3-(1-methyl-1H-pyrazol-3-yl)-N-(2-phenyl-6,7-dihydro-5H-pyrrolo[1,2-a]imidazol-3-yl)-4-(trifluoromethyl)benzamide] | 44 nM |
| Cn1ccc(-c2cc(C(=O)Nc3cc(CC(N)=O)nn3-c3ccc(F)cc3)c(F)cc2C(F)(F)F)n1 [Compound 111, N-(3-(2-amino-2-oxoethyl)-1-(4-fluorophenyl)-1H-pyrazol-5-yl)-2-fluoro-5-(1-methyl-1H-pyrazol-3-yl)-4-(trifluoromethyl)benzamide] | 2.4 nM |
| NC(=O)c1ccnc(-c2cc(NC(=O)c3cc(-c4ncccn4)c(C(F)(F)F)cc3F)n(-c3ccc(F)cc3)n2)n1 [Compound 84, 2-(5-(2-fluoro-5-(pyrimidin-2-yl)-4-(trifluoromethyl)benzamido)-1-(4-fluorophenyl)-1H-pyrazol-3-yl)pyrimidine-4-carboxamide] | 4.9 nM |
| Cc1c(-c2cnn(C)c2)nn(-c2ccccc2)c1NC(=O)c1ccc(C(F)(F)F)c(-c2ccn(C)n2)c1 [Compound 44, N-(1′,4-dimethyl-1-phenyl-1H,1′H-3,4′-bipyrazol-5-yl)-3-(1-methyl-1H-pyrazol-3-yl)-4-(trifluoromethyl)benzamide] | 11 nM |
| O=C(Nc1sc(-c2cnn(CCO)c2)nc1-c1ccccc1)c1cc(-c2ncccn2)c(C(F)(F)F)cc1F [Compound 106, 2-fluoro-N-(2-(1-(2-hydroxyethyl)-1H-pyrazol-4-yl)-4-phenylthiazol-5-yl)-5-(pyrimidin-2-yl)-4-(trifluoromethyl)benzamide] | 6.7 nM |
| Cc1cc(-n2nc(C(=O)NCc3cccnc3)cc2NC(=O)c2cc(-c3ccn(C)n3)c(C(F)(F)F)cc2F)[nH]n1 [Compound 76, 5-({[2-fluoro-5-(1-methyl-1H-pyrazol-3-yl)-4-(trifluoromethyl)phenyl]carbonyl}amino)-5′-methyl-N-(pyridin-3-ylmethyl)-2′H-1,3′-bipyrazole-3-carboxamide] | 0.39 nM |
| Cn1ccc(-c2cc(C(=O)Nc3cc(-c4ncccn4)nn3-c3ccc(F)cc3)ccc2C(F)(F)F)n1 [Compound 60, N-[1-(4-fluorophenyl)-3-pyrimidin-2-yl-1H-pyrazol-5-yl]-3-(1-methyl-1H-pyrazol-3-yl)-4-(trifluoromethyl)benzamide] | 3 nM |
| Cn1ccc(-c2cc(C(=O)Nc3cc(Cc4nnn(CCO)n4)nn3-c3ccc(F)cc3)ccc2C(F)(F)F)n1 [Compound 77, N-[1-(4-fluorophenyl)-3-{[2-(2-hydroxyethyl)-2H-tetrazol-5-yl]methyl}-1H-pyrazol-5-yl]-3-(1-methyl-1H-pyrazol-3-yl)-4-(trifluoromethyl)benzamide] | 14 nM |
| Cc1nc(-c2ccncc2)c(NC(=O)c2ccc(C(F)(F)F)c(-c3ccn(C)n3)c2)n1C [Compound 52, N-(1,2-dimethyl-4-pyridin-4-yl-1H-imidazol-5-yl)-3-(1-methyl-1H-pyrazol-3-yl)-4-(trifluoromethyl)benzamide] | 2100 nM |
| Cn1nnnc1Cc1cc(NC(=O)c2cc(-c3ncccn3)c(C(F)(F)F)cc2F)n(-c2ccc(F)cc2)n1 [Compound 104, 2-fluoro-N-(1-(4-fluorophenyl)-3-((1-methyl-1H-tetrazol-5-yl)methyl)-1H-pyrazol-5-yl)-5-(pyrimidin-2-yl)-4-(trifluoromethyl)benzamide] | 1.6 nM |
| Cc1nc(NC(=O)c2ccc(C(F)(F)F)c(-c3ccn(C)n3)c2)c(-c2ccccc2)s1 [Compound 72, N-(2-methyl-5-phenyl-1,3-thiazol-4-yl)-3-(1-methyl-1H-pyrazol-3-yl)-4-(trifluoromethyl)benzamide] | 62 nM |
| Cc1nc(-c2nc(C)n(C)c2NC(=O)c2ccc(C(F)(F)F)c(-c3ccn(C)n3)c2)cs1 [Compound 53, N-[1,2-dimethyl-4-(2-methyl-1,3-thiazol-4-yl)-1H-imidazol-5-yl]-3-(1-methyl-1H-pyrazol-3-yl)-4-(trifluoromethyl)benzamide] | 590 nM |
